Test results reported in US9249163B2, “PDE10a inhibitors for the treatment of type II diabetes” (Janssen Pharmaceutica, NV, priority 2013, dated 2016).
Counter-ions that a name gives are not always drawn.

Key:
[1] = biological target: Rat recombinant PDE10a (rPDE10a) (Rattus norvegicus (Rat), UniProt Q9QYJ6); test: In vitro assay PDE10a (rat recombinant PDE10a, SPA); format: biochemical; settings: 60 nM cAMP, 60 min at rt, read-out: rPDE10a2 IC50
Description: Rat recombinant PDE10a (rPDE10a) was expressed in Sf9 cells using a recombinant rPDE10a baculovirus construct. Cells were harvested after 48 h of infection and the rPDE10a protein was purified by metal chelate chromatography on Ni-sepharose 6FF. Tested compounds were dissolved and diluted in 100% DMSO to a concentration 100 fold of the final concentration in the assay. Compound dilutions (0.4 μL) were added in 384 well plates to 20 μL of incubation buffer (50 mM Tris pH 7.8, 8.3 mM MgCl2, 1.7 mM EGTA). 10 μL of rPDE10a enzyme in incubation buffer was added and the reaction was started by addition of 10 μL substrate to a final concentration of 60 nM cAMP and 0.008 μCi ^3H-cAMP. The reaction was incubated for 60 min at rt. After incubation, the reaction was stopped with 20 μL of 17.8 mg/mL PDE SPA beads. After sedimentation of the beads during 30 min the radioactivity was measured in a Perkin Elmer Topcount scintillation counter and results were expressed as cpm. For blank values the enzyme was omitted from the reaction and replaced by incubation buffer. Control values were obtained by addition of a final concentration of 1% DMSO instead of compound.

[2] = biological target: Human recombinant PDE10A2 (Homo sapiens (Human), UniProt Q9Y233); test: In vitro hPDE10a (human recombinant PDE10A2, scintillation proximity assay); format: biochemical; settings: human recombinant PDE10A2, 60 nM cAMP, 60 min at room temperature; read-out: hPDE10a2 IC50
Sequence of Human recombinant PDE10A2 (Q9Y233 267-1055): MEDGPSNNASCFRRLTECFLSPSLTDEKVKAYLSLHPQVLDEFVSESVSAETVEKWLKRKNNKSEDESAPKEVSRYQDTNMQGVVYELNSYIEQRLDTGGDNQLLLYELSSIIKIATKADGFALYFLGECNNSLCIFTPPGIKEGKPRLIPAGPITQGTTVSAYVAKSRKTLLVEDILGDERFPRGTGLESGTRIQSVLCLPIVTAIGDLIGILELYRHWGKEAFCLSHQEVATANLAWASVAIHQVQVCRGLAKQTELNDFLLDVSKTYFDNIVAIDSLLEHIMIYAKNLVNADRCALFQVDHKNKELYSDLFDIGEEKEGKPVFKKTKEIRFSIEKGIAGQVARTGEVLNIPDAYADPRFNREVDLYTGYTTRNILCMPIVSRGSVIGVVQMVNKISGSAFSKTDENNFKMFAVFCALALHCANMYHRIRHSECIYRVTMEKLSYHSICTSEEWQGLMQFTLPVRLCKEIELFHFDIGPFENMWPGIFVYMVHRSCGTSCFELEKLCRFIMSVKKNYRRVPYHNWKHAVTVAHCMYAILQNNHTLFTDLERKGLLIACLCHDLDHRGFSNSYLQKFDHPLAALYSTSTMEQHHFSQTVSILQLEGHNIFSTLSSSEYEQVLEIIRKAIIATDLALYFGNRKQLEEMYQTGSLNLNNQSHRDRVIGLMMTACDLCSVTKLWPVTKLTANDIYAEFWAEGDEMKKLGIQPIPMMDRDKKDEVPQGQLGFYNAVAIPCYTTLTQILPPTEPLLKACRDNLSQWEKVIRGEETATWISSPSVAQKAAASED
Description: Human recombinant PDE10A2 was expressed in Sf9 cells, using a recombinant baculovirus construct containing the full length sequence containing a 6×His sequence following the start Met to allow metal affinity purification of the recombinant protein. Cells were harvested and the phosphodiesterase protein was purified by metal chelate chromatography on Ni-sepharose 6FF.
The affinity of the compounds of Formula (I) for phophodiesterases (PDE) was measured by a scintillation proximity assay (SPA). PDE Yttrium Silicate SPA beads allow PDE activity to be measured by direct binding of the primary phosphate groups of non-cyclic AMP or GMP to the beads via a complex iron chelation mechanism. The amount of bound tritiated product ([^3H]-AMP) is measured by liquid scintillation counting.
The compounds were dissolved and diluted in 100% DMSO in polystyrene plates to a concentration of 100-fold the final concentration in the assay. Human PDE10A enzyme solution (10 μL) was added to 20 μL, of incubation buffer (50 mM Tris pH 7.8, 8.3 mM MgCl2, 1.7 mM EGTA), 10 μL, substrate solution consisting of a mixture of non-tritiated and tritiated substrate (60 nM cAMP, 0.008 μCi ^3H-cAMP), and 0.4 μL, compound in 100% DMSO in a 384-well plate, and incubated for 60 min at room temperature. After incubation, the reaction was stopped with 20 μL, of stop solution, consisting of PDE SPA beads (17.8 mg beads/mL in 18 mM zinc sulphate). After sedimentation of the beads for 30 min, the radioactivity was measured in a Perkin Elmer Topcount scintillation counter and results were expressed as cpm. To measure the low control, no enzyme was added to the reaction mixture.
Data were calculated as the percentage of inhibition of total activity measured in the absence of test compound (% control).

Sequence of Rat recombinant PDE10a (rPDE10a) (Q9QYJ6 whole entry): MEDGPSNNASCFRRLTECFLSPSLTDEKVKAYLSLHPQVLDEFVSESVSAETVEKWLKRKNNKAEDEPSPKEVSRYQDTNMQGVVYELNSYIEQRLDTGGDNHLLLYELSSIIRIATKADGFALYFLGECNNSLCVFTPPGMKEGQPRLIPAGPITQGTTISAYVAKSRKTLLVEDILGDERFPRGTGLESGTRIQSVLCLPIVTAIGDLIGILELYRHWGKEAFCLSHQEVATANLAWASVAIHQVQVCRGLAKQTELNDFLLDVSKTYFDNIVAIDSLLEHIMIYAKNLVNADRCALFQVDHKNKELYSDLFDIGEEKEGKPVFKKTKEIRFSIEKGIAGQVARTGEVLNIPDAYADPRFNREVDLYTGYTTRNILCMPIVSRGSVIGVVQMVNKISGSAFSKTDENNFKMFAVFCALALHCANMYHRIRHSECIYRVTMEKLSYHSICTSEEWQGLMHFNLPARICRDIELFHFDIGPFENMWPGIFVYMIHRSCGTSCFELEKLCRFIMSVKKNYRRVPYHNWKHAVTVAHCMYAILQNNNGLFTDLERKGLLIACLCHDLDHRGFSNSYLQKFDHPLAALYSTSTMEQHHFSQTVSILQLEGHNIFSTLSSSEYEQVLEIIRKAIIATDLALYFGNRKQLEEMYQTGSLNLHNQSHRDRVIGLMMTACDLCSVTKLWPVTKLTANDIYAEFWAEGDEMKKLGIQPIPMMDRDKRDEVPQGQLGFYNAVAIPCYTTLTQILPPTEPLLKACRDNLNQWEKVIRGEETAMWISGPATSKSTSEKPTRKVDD

Row | SMILES | IC50 [1] | IC50 [2]
1 | O=C(O)CCC(=O)Nc1ccc(-c2cnc(N3CCOCC3)c3nc(/C=C/c4ccc5ccccc5n4)cn23)cc1 [Cpd 32] | 0.006 µM | 0.012 µM
2 | Cn1nc(-c2ccc(-c3cnc(N4CCOCC4)c4nc(CCc5ccc6ccccc6n5)cn34)cc2)[nH]c1=O [Cpd 33, 1-Methyl-3-[4-[8-(morpholin-4-yl)-2-[2-(quinolin-2-yl)ethyl]imidazo[1,2-a]pyrazin-5-yl]phenyl]-4,5-dihydro-1H-1,2,4-triazol-5-one] | 0.023 µM | 0.021 µM
3 | CC(C)[C@H](NC(=O)c1ccc(-c2cnc(N3CCOCC3)c3nc(CCc4ccc5ccccc5n4)cn23)cc1)C(=O)O [Cpd 34, (S)-3-Methyl-2-(4-(8-morpholino-2-(2-(quinolin-2-yl)ethyl)imidazo[1,2-a]pyrazin-5-yl)benzamido)butanoic acid trifluoroacetic acid salt] | 0.013 µM | 0.005 µM
4 | O=C(O)[C@@H]1CCCN1C(=O)c1ccc(-c2cnc(N3CCOCC3)c3nc(CCc4ccc5ccccc5n4)cn23)cc1 [Cpd 35, (S)-1-(4-(8-Morpholino-2-(2-(quinolin-2-yl)ethyl)imidazo[1,2-a]pyrazin-5-yl)benzoyl)pyrrolidine-2-carboxylic acid trifluoroacetic acid salt] | 0.012 µM | 0.007 µM
5 | c1ccc2nc(CCc3cn4c(-c5ccc(Sc6cnn[nH]6)cc5)cnc(N5CCOCC5)c4n3)ccc2c1 [Cpd 36, 4-(5-(4-((1H-1,2,3-triazol-5-yl)thio)phenyl)-2-(2-(quinolin-2-yl)ethyl)imidazo[1,2-a]pyrazin-8-yl)morpholine] | 0.023 µM | 0.017 µM
6 | O=C(O)CCNC(=O)c1ccc(-c2cnc(N3CCOCC3)c3nc(CCc4ccc5ccccc5n4)cn23)cc1 [Cpd 38, 3-(4-(8-Morpholino-2-(2-(quinolin-2-yl)ethyl)imidazo[1,2-a]pyrazin-5-yl)benzamido)propanoic acid] | 0.007 µM | 0.002 µM
7 | O=C(O)CCNC(=O)c1ccc(-c2cnc(N3CCOCC3)c3nc(/C=C/c4ccc5ccccc5n4)cn23)cc1 [Cpd 39, (E)-3-(4-(8-Morpholino-2-(2-(quinolin-2-yl)vinyl)imidazo[1,2-a]pyrazin-5-yl)benzamido)propanoic acid] | 0.008 µM | 0.005 µM
8 | CS(=O)(=O)NC(=O)Nc1ccc(-c2cnc(N3CCOCC3)c3nc(CCc4ccc5ccccc5n4)cn23)cc1 [Cpd 40, N-((4-(8-Morpholino-2-(2-(quinolin-2-yl)ethyl)imidazo[1,2-a]pyrazin-5-yl)phenyl)carbamoyl)methanesulfonamide] | 0.02 µM | 0.01 µM
9 | COCOc1c(C)cc(-c2cnc(N3CCOCC3)c3nc(/C=C/c4ccc5ccccc5n4)cn23)cc1C [Cpd 41, (E)-4-(5-(4-(methoxymethoxy)-3,5-dimethylphenyl)-2-(2-(quinolin-2-yl)vinyl)imidazo[1,2-a]pyrazin-8-yl)morpholine] | 0.021 µM | 0.019 µM
10 | O=C1NS(=O)(=O)c2ccc(-c3cnc(N4CCOCC4)c4nc(/C=C/c5ccc6ccccc6n5)cn34)cc21 [Cpd 42, (E)-5-(8-Morpholino-2-(2-(quinolin-2-yl)vinyl)imidazo[1,2-a]pyrazin-5-yl)benzo[d]isothiazol-3(2H)-one 1,1-dioxide] | 0.002 µM | 0.001 µM
11 | CN1c2cc(-c3cnc(N4CCOCC4)c4nc(/C=C/c5ccc6ccccc6n5)cn34)ccc2NS1(=O)=O [Cpd 43, (E)-1-Methyl-6-(8-morpholino-2-(2-(quinolin-2-yl)vinyl)imidazo[1,2-a]pyrazin-5-yl)-1,3-dihydrobenzo[c][1,2,5]thiadiazole 2,2-dioxide trifluoroacetic acid salt] | 0.007 µM | 0.003 µM
12 | CC(C)[C@H](NC(=O)c1ccc(-c2cnc(N3CCOCC3)c3nc(/C=C/c4ccc5ccccc5n4)cn23)cc1)C(=O)O [Cpd 44, (S,E)-3-Methyl-2-(4-(8-morpholino-2-(2-(quinolin-2-yl)vinyl)imidazo[1,2-a]pyrazin-5-yl)benzamido)butanoic acid trifluoroacetic acid salt] | 0.009 µM | 0.014 µM
13 | O=C(O)[C@@H]1CCCN1C(=O)c1ccc(-c2cnc(N3CCOCC3)c3nc(/C=C/c4ccc5ccccc5n4)cn23)cc1 [Cpd 45, (S,E)-1-(4-(8-Morpholino-2-(2-(quinolin-2-yl)vinyl)imidazo[1,2-a]pyrazin-5-yl)benzoyl)pyrrolidine-2-carboxylic acid trifluoroacetic acid salt] | 0.023 µM | 0.02 µM
14 | O=C(O)CNC(=O)c1ccc(-c2cnc(N3CCOCC3)c3nc(CCc4ccc5ccccc5n4)cn23)cc1 [Cpd 46, 2-(4-(8-Morpholino-2-(2-(quinolin-2-yl)ethyl)imidazo[1,2-a]pyrazin-5-yl)benzamido)acetic acid] | 0.004 µM | 0.007 µM
15 | Cn1nc(-c2ccc(-c3cnc(N4CCOCC4)c4nc(/C=C/c5ccc6ccccc6n5)cn34)cc2)[nH]c1=O [Cpd 47, (E)-2-Methyl-5-(4-(8-morpholino-2-(2-(quinolin-2-yl)vinyl)imidazo[1,2-a]pyrazin-5-yl)phenyl)-2H-1,2,4-triazol-3(4H)-one] | 0.015 µM | 0.034 µM
16 | O=C1NC(=O)C(c2ccc(-c3cnc(N4CCOCC4)c4nc(/C=C/c5ccc6ccccc6n5)cn34)cc2)O1 (stereo not shown) [Cpd 48, (E)-5-(4-(8-Morpholino-2-(2-(quinolin-2-yl)vinyl)imidazo[1,2-a]pyrazin-5-yl)phenyl)oxazolidine-2,4-dione] | 0.037 µM | 0.011 µM
17 | Cc1cc(S(=O)(=O)NC(C)C)ccc1-c1cnc(N2CCOCC2)c2nc(/C=C/c3ccc4ccccc4n3)cn12 [Cpd 49, (E)-N-isopropyl-3-methyl-4-(8-morpholino-2-(2-(quinolin-2-yl)vinyl)imidazo[1,2-a]pyrazin-5-yl)benzenesulfonamide] | 0.098 µM | 0.155 µM
18 | O=C(O)CNC(=O)c1ccc(-c2cnc(N3CCOCC3)c3nc(/C=C/c4ccc5ccccc5n4)cn23)cc1 [Cpd 50, (E)-2-(4-(8-Morpholino-2-(2-(quinolin-2-yl)vinyl)imidazo[1,2-a]pyrazin-5-yl)benzamido)acetic acid] | 0.017 µM | 0.018 µM
19 | Oc1ncn(-c2ccc(-c3cnc(N4CCOCC4)c4nc(CCc5ccc6ccccc6n5)cn34)cc2)n1 [Cpd 51, 1-(4-(8-Morpholino-2-(2-(quinolin-2-yl)ethyl)imidazo[1,2-a]pyrazin-5-yl)phenyl)-1H-1,2,4-triazol-3-ol] | 0.005 µM | 0.004 µM
20 | O=C1NS(=O)(=O)c2cc(-c3cnc(N4CCOCC4)c4nc(CCc5ccc6ccccc6n5)cn34)ccc21 [Cpd 54, 6-(8-Morpholino-2-(2-(quinolin-2-yl)ethyl)imidazo[1,2-a]pyrazin-5-yl)benzo[d]isothiazol-3(2H)-one 1,1-dioxide trifluoroacetic acid salt] | 0.001 µM | 0.001 µM
21 | O=c1ncn(-c2ccc(-c3cnc(N4CCOCC4)c4nc(/C=C/c5ccc6ccccc6n5)cn34)cc2)[nH]1 [Cpd 56, (E)-1-(4-(8-Morpholino-2-(2-(quinolin-2-yl)vinyl)imidazo[1,2-a]pyrazin-5-yl)phenyl)-1,2-dihydro-1,2,4-triazol-3-one] | 0.015 µM | 0.014 µM
22 | O=C1NC(=O)C(c2ccc(-c3cnc(N4CCOCC4)c4nc(/C=C/c5ccc6ccccc6n5)cn34)cc2)N1 (stereo not shown) [Cpd 57, (E)-5-(4-(8-Morpholino-2-(2-(quinolin-2-yl)vinyl)imidazo[1,2-a]pyrazin-5-yl)phenyl)imidazolidine-2,4-dione 2,2,2-trifluoroacetate] | 0.048 µM | 0.046 µM
23 | O=c1[nH]ncn1-c1ccc(-c2cnc(N3CCOCC3)c3nc(/C=C/c4ccc5ccccc5n4)cn23)cc1 [Cpd 58, (E)-4-(4-(8-morpholino-2-(2-(quinolin-2-yl)vinyl)imidazo[1,2-a]pyrazin-5-yl)phenyl)-1H-1,2,4-triazol-5(4H)-one] | 0.132 µM | 0.091 µM
